Data: US12690591B2, “Fungicidal composition containing oxadiazole compounds” (PI INDUSTRIES LIMITED, priority 2021, dated 2026)
Read-outs that look alike come from different tables or passages of the source.

How the values were obtained:
Corynespora cassiicola = Corynespora cassiicola test (tomato), preventive glasshouse spray test; type: in vivo; conditions: single compound
Pyricularia oryzae = test: whole plant or invertebrate; type: in vivo; conditions: for Observed Efficacy (%): preventive spray on rice plants
Phakopsora pachyrhizi = Phakopsora pachyrhizi test (soybean), preventive glasshouse spray test; type: in vivo; conditions: for pest or weed control at 0.05 ppm / pest or weed control at 0.0001 ppm / pest or weed control at 0.001 ppm / pest or weed control at 0.01 ppm / pest or weed control at 0.1 ppm: Phakopsora pachyrhizi, read-out: Observed Efficacy (%)
Phytopthora infestans = type: in vivo; conditions: single compound, tomato, preventive spray
Alternaria solani = Alternaria solani test (tomato plants), preventive glasshouse spray test; conditions: for pest or weed control at 1 ppm / pest or weed control at 5 ppm / pest or weed control at 10 ppm: Alternaria solani, in Solanum lycopersicum, read-out: Observed Efficacy (%)
Erysiphe cichoracearum = Erysiphe cichoracearum test (cucumber), preventive glasshouse spray test; conditions: preventive spray on cucumber plants
Septoria nodorum = test: Parastagonospora nodorum/Septoria nodorum/Stagnospora nodorum test (wheat), preventive glasshouse spray test; type: in vivo; conditions: preventive spray on wheat plants
Botrytis cinerea = Botrytis cinerea test (tomato), preventive glasshouse spray test; type: in vivo
[1] = tested on: Pseudoperonospora cubensis; test: Pseudoperonospora cubensis test (cucumber), preventive glasshouse spray test; type: in vivo
Description: The test solutions were poured into the spray bottles for further applications.

[2] = Table D1, single compound, 0.05 ppm, soybean, preventive spray
[3] = Pyricularia oryzae, read-out: Observed Efficacy (%)
[4] = Table G1, single compound, 0.1 ppm
[5] = Table G1, single compound, 0.05 ppm
[6] = single compound, Conc. 0.05 ppm
[7] = Table D3, single compound, 0.05 ppm, soybean, preventive spray
[8] = Table D3, single compound, 0.1 ppm, soybean, preventive spray

For Cn1cc(C(=O)Nc2cccc3c2[C@@H]2CC[C@H]3C2=C(Cl)Cl)c(C(F)F)n1 (racemic) [Benzovindiflupyr, benzovindiflupyr], the “Observed Efficacy (%)” value (Corynespora cassiicola; Conc. 0.05 ppm) was 18%.
For CO/C=C(/C(=O)OC)c1ccccc1Oc1cc(Oc2ccccc2C#N)ncn1 [Azoxystrobin, azoxystrobin, reference compound], the “Observed Efficacy (%)” value (Pyricularia oryzae; single compound at 0.1 ppm) was 26%.
For O=C(Nc1ccccc1-c1ccc(Cl)cc1)c1cccnc1Cl [Boscalid, boscalid, reference compound], the pest or weed control at 0.05 ppm (Phakopsora pachyrhizi; [2]) was 27% and the “Observed Efficacy (%)” value (Phytopthora infestans; Conc. 0.1 ppm) was 11%.
O=C(COc1ccc(F)cc1)c1ccc(-c2noc(C(F)(F)F)n2)cc1 [Compound (I-2), 2-(4-fluorophenoxy)-1-(4-(5-(trifluoromethyl)-1,2,4-oxadiazol-3-yl)phenyl)ethan-1-one] showed a pest or weed control at 0.0001 ppm (Phakopsora pachyrhizi; Table D1, single compound, 0.0001 ppm, soybean, preventive spray) of 40%, a pest or weed control at 0.001 ppm (Phakopsora pachyrhizi; Table D1, single compound, 0.001 ppm, soybean, preventive spray) of 50% and a pest or weed control at 0.01 ppm (Phakopsora pachyrhizi; Table D1, single compound, soybean, preventive spray) of 62%. For the same compound, the pest or weed control at 1 ppm (Alternaria solani) was 34%, the pest or weed control at 5 ppm (Alternaria solani) was 42% and the pest or weed control at 10 ppm (Alternaria solani) was 47%. For the same compound, the “Observed Efficacy (%)” value (Erysiphe cichoracearum; single compound at 1 ppm) was 13%, the “Observed Efficacy (%)” value (Septoria nodorum; single compound at 1 ppm) was 17% and the “Observed Efficacy (%)” value (Septoria nodorum; single compound at 5 ppm) was 20%. For the same compound, the “Observed Efficacy (%)” value (Septoria nodorum; single compound at 10 ppm) was 43%, the pest or weed control at 1 ppm (Pyricularia oryzae; [3]) was 17% and the pest or weed control at 10 ppm (Pyricularia oryzae; [3]) was 37%. The “Observed Efficacy (%)” value (Botrytis cinerea; Table F1, single compound, 1 ppm, tomato, preventive spray) was 20%, the “Observed Efficacy (%)” value (Botrytis cinerea; Table F1, single compound, 5 ppm, tomato, preventive spray) was 27% and the “Observed Efficacy (%)” value (Botrytis cinerea; Table F1, single compound, 10 ppm, tomato, preventive spray) was 47%.
For O=C(COc1ccc(F)nc1)c1ccc(-c2noc(C(F)(F)F)n2)cc1 [Compound (I-3), 2-((6-fluoropyridin-3-yl)oxy)-1-(4-(5-(trifluoromethyl)-1,2,4-oxadiazol-3-yl)phenyl)ethan-1-one], the pest or weed control at 0.0001 ppm (Phakopsora pachyrhizi; single compound at 0.0001 ppm, preventive spray on soybean plants) was 43%, the pest or weed control at 0.001 ppm (Phakopsora pachyrhizi; single compound at 0.001 ppm, preventive spray on soybean plants) was 50% and the pest or weed control at 1 ppm (Alternaria solani) was 35%. For the same compound, the pest or weed control at 5 ppm (Alternaria solani) was 40%, the pest or weed control at 10 ppm (Alternaria solani) was 47% and the “Observed Efficacy (%)” value (Corynespora cassiicola; Conc. 5 ppm) was 36%. For the same compound, the “Observed Efficacy (%)” value (Corynespora cassiicola; Conc. 10 ppm) was 45%, the “Observed Efficacy (%)” value (Erysiphe cichoracearum; single compound at 1 ppm) was 35% and the “Observed Efficacy (%)” value (Erysiphe cichoracearum; single compound at 5 ppm) was 37%. For the same compound, the “Observed Efficacy (%)” value (Erysiphe cichoracearum; single compound at 10 ppm) was 39%, the “Observed Efficacy (%)” value [1, 4] was 36% and the “Observed Efficacy (%)” value ([1]; Table G1, single compound, 1 ppm) was 32%. For the same compound, the “Observed Efficacy (%)” value ([1]; Table G1, single compound, 10 ppm) was 34%, the pest or weed control at 10 ppm (Pyricularia oryzae; [3]) was 42% and the “Observed Efficacy (%)” value (Botrytis cinerea; single compound at 10 ppm, preventive spray on tomato plants) was 20%.
O=C(CNc1ccc(F)cc1)c1ccc(-c2noc(C(F)(F)F)n2)cc1 [Compound (I-8), 2-((4-fluorophenyl)amino)-1-(4-(5-(trifluoromethyl)-1,2,4-oxadiazol-3-yl)phenyl)ethan-1-one] showed a pest or weed control at 0.0001 ppm (Phakopsora pachyrhizi; Table D3, single compound, 0.0001 ppm, soybean, preventive spray) of 37%, a pest or weed control at 0.001 ppm (Phakopsora pachyrhizi; Table D3, single compound, 0.001 ppm, soybean, preventive spray) of 47% and a pest or weed control at 0.01 ppm (Phakopsora pachyrhizi; Table D3, single compound, soybean, preventive spray) of 60%. The pest or weed control at 1 ppm (Alternaria solani) was 26%, the pest or weed control at 5 ppm (Alternaria solani) was 37% and the pest or weed control at 10 ppm (Alternaria solani) was 47%. For the same compound, the “Observed Efficacy (%)” value (Erysiphe cichoracearum; single compound at 1 ppm) was 19%, the “Observed Efficacy (%)” value (Erysiphe cichoracearum; single compound at 5 ppm) was 25% and the “Observed Efficacy (%)” value (Erysiphe cichoracearum; single compound at 10 ppm) was 31%. The “Observed Efficacy (%)” value ([1]; single compound, Conc. 1 ppm) was 17%, the “Observed Efficacy (%)” value ([1]; single compound, Conc. 5 ppm) was 19% and the “Observed Efficacy (%)” value ([1]; single compound, Conc. 10 ppm) was 28%. The “Observed Efficacy (%)” value (Phytopthora infestans; Conc. 1 ppm) was 32%, the “Observed Efficacy (%)” value (Phytopthora infestans; Conc. 5 ppm) was 42% and the pest or weed control at 1 ppm (Pyricularia oryzae; [3]) was 17%. The pest or weed control at 5 ppm (Pyricularia oryzae; [3]) was 22% and the pest or weed control at 10 ppm (Pyricularia oryzae; [3]) was 31%.
N#Cc1sc2c(=O)c3ccccc3c(=O)c=2sc1C#N [Dithianon, dithianon] was tested, and the “Observed Efficacy (%)” value (Septoria nodorum; single compound at 0.1 ppm) was 16%.
For O=[N+]([O-])c1cc(C(F)(F)F)c(Cl)c([N+](=O)[O-])c1Nc1ncc(C(F)(F)F)cc1Cl [Fluazinam, fluazinam], the “Observed Efficacy (%)” value (Corynespora cassiicola; Conc. 0.1 ppm) was 12% and the “Observed Efficacy (%)” value (Septoria nodorum; single compound at 0.1 ppm) was 21%.
For CC1CC(C)(C)c2c(F)ccc(NC(=O)c3cn(C)nc3C(F)F)c21 (centres unmarked) [Fluindapyr, fluindapyr, reference compound], the “Observed Efficacy (%)” value [1, 5] was 35% and the “Observed Efficacy (%)” value (Pyricularia oryzae; single compound at 0.05 ppm) was 11%.
With O=C(NCCc1ncc(C(F)(F)F)cc1Cl)c1ccccc1C(F)(F)F [Fluopyram, fluopyram] the “Observed Efficacy (%)” value (Septoria nodorum; single compound at 0.05 ppm) was 8%, the “Observed Efficacy (%)” value (Septoria nodorum; single compound at 0.1 ppm) was 21% and the “Observed Efficacy (%)” value [1, 5] was 2%. The “Observed Efficacy (%)” value [1, 4] was 12%, the “Observed Efficacy (%)” value [1, 6] was 2% and the “Observed Efficacy (%)” value ([1]; single compound, Conc. 0.1 ppm) was 12%.
O=C1c2ccccc2C(=O)N1SC(Cl)(Cl)Cl [Folpet, folpet, reference compound] was tested, and the “Observed Efficacy (%)” value (Phytopthora infestans; Conc. 0.1 ppm) was 11% and the “Observed Efficacy (%)” value (Botrytis cinerea; Table F1, single compound, 0.1 ppm, tomato, preventive spray) was 38%.
With CC1CC(C)(C)c2c(F)ccc(NC(=O)c3cn(C)nc3C(F)F)c21 (centres unmarked) [Inpyrfluxam, inpyrfluxam] the “Observed Efficacy (%)” value (Phakopsora pachyrhizi; [2]) was 18%, the “Observed Efficacy (%)” value (Alternaria solani; single compound at 0.1 ppm, preventive spray on tomato plants) was 23% and the “Observed Efficacy (%)” value (Corynespora cassiicola; Conc. 0.05 ppm) was 16%. For the same compound, the “Observed Efficacy (%)” value (Septoria nodorum; single compound at 0.05 ppm) was 12%.
CC(O)(Cn1cncn1)c1ccc(Oc2ccc(Cl)cc2)cc1C(F)(F)F (centres unmarked) [Mefentrifluconazole, mefentrifluconazole] was tested, and the “Observed Efficacy (%)” value (Phakopsora pachyrhizi; [7]) was 32% and the “Observed Efficacy (%)” value (Phakopsora pachyrhizi; [8]) was 44%.
With CNC(=O)/C(=N/OC)c1ccccc1Oc1ccccc1 [Metominostrobin, metominostrobin] the “Observed Efficacy (%)” value (Septoria nodorum; single compound at 0.05 ppm) was 6% and the “Observed Efficacy (%)” value (Septoria nodorum; single compound at 0.1 ppm) was 12%.
In the case of OC(Cc1ccccc1Cl)(Cn1nc[nH]c1=S)C1(Cl)CC1 (centres unmarked) [Prothioconazole, prothioconazole], the pest or weed control at 0.1 ppm (Phakopsora pachyrhizi; Table D1, single compound, 0.1 ppm, soybean, preventive spray) is reported as 48%, the “Observed Efficacy (%)” value (Phakopsora pachyrhizi; [8]) is reported as 48% and the “Observed Efficacy (%)” value ([1]; single compound, Conc. 0.1 ppm) is reported as 45%.
With COC(=O)N(OC)c1ccccc1COc1ccn(-c2ccc(Cl)cc2)n1 [Pyraclostrobin, pyraclostrobin] the pest or weed control at 0.05 ppm (Phakopsora pachyrhizi; [7]) was 37% and the pest or weed control at 0.1 ppm (Phakopsora pachyrhizi; [8]) was 46%.
mancozeb was tested, and the “Observed Efficacy (%)” value (Corynespora cassiicola; Conc. 0.05 ppm) was 10%, the “Observed Efficacy (%)” value [1, 5] was 2% and the “Observed Efficacy (%)” value [1, 4] was 5%. The “Observed Efficacy (%)” value [1, 6] was 2% and the “Observed Efficacy (%)” value ([1]; single compound, Conc. 0.1 ppm) was 5%.
In the case of metiram [reference compound], the “Observed Efficacy (%)” value (Pyricularia oryzae; single compound at 0.1 ppm) is reported as 18%.
